{
  "source": "patent EP4389751A1",
  "about": "“HETEROCYCLIC COMPOUNDS AND USES THEREOF” (Kumquat Biosciences Inc., priority 2021, dated 2024)",
  "biological_target": "T1, K-Ras G12S (Homo sapiens, UniProt P01116, G12S)",
  "T1 construct": "made in house; host or cells: E. coli (e.g., BL21 (DE3))",
  "T1 sequence (P01116 1-188 isoform P01116-2 G12S)": "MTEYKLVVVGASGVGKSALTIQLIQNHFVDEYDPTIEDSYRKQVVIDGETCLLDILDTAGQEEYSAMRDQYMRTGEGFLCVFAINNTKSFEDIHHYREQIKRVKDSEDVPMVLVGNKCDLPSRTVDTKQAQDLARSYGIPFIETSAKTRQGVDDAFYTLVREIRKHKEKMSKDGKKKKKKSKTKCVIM",
  "test": "HTRF assay of the K-Ras / SOS1 interaction",
  "format": "biochemical",
  "conditions": "IC50 (against K-Ras G12D) to IC50 (against K-Ras G12S)",
  "text": "This assay can be also used to assess a selective inhibition or reduction of signaling output of a mutant Ras protein relative to a wildtype, or relative to a different mutant Ras protein. For example, the equilibrium interaction of wildtype Kras or K-Ras mutant (e.g., wildtype or a mutant thereof including those mentioned in Example 6) with SOS1 (e.g., hSOS1) can be assessed as a proxy or an indication for a subject compound's ability to bind and inhibit Ras protein. HTRF assay detects from (i) a fluorescence resonance energy transfer (FRET) donor (e.g., antiGST-Europium) that is bound to GST-tagged K-Ras mutant to (ii) a FRET acceptor (e.g., anti-6His-XL665) bound to a His-tagged hSOS 1.\nThe assay buffer can contain ~5 mM HEPES pH 7.4, -150 mM NaCI, - 1 mM DTT, 0.05% BSA and 0.0025% (v/v) Igepal. A Ras working solution is prepared in an assay buffer containing typically a suitable amount of the protein construct (e.g., GST-tagged K-Ras mutant) and the FRET donor (e.g., antiGST-Eu(K) from Cisbio, France). A SOS1 working solution is prepared in an assay buffer containing suitable amount of the protein construct (e.g., His-hSOS1) and the FRET acceptor (e.g., anti-6His-XL665 from Cisbio, France). A suitable amount of the protein construct will depend on the range of activity or range of IC50 values being detected or under investigation. For detecting IC50 within a range of 500 nM, the protein constructs of the same range of molarity can be utilized.\nA fixed volume of DMSO with or without test compound is transferred into a 384-well plate. Ras working solution is added to all wells of the test plate. SOS1 working solution is added to all wells except for those that are subsequently filled the inhibitor control solution. Upon incubation for about 10 minutes or longer, the fluorescence is measured with a M1000Pro plate reader (Tecan) using HTRF detection (excitation 337nm, emission 1 : 620nm, emission 2: 665nm). Compounds are tested in duplicates at different concentrations (for example, 10 µM, 2.5 µM, 0.63 µM, 0.16 µM, 0.04 µM, 0.01 µM test compound). The ratiometric data (i.e., emission 2 divided by emission 1) is used to calculate IC50 values against Ras using GraphPad Prism (GraphPad software). Following this general procedure, samples were tested with or without a subject compound disclosed herein including compounds exemplified in Table 3 to assess their abilities to inhibit K-Ras G12S relative to another mutant (e.g., K-Ras G12D). Signaling output measured in terms of IC50 values can be obtained, a ratio of IC50 against one mutant relative to another mutant can be calculated. For instance, a selective reduction of K-Ras G12S signaling output can be evidenced by a ratio greater than one. In particular, a selective reduction of K-Ras G12S signaling relative to K-Ras G12D signaling is evidenced as the ratio of IC50 (against K-Ras G12D) to IC50 (against K-Ras G12S) is greater than 1. […]",
  "data": [
    {"smiles": "Nc1nc2c(-c3c(Cl)cc4c(OC5CC6CN(C(=O)n7cncn7)CC65)nc(OC[C@@]56CCCN5C[C@H](F)C6)nc4c3F)ccc(F)c2s1", "note": "(stereo partly drawn) [Compound A297, (6-((7-(2-amino-7-fluorobenzo[d]thiazol-4-yl)-6-chloro-8-fluoro-2-(((2R,7aS)-2-fluorotetrahydro-1H-pyrrolizin-7a(5H)-yl)methoxy)quinazolin-4-yl)oxy)-3-azabicyclo[3.2.0]heptan-3-yl)(1H-1,2,4-triazol-1-yl)methanone]", "values": [
      {"measurement": "Ratio of IC50 KRAS G12D vs. IC50 KRAS G12S", "result": "A (A: indicates that the ratio of IC50 against KrasG12D vs. IC50 against KrasG12S is 1-fold or greater)"}
    ]},
    {"smiles": "N#Cc1ccn(C(=O)N2CC3CCC(C2)N3c2nc(OC[C@@]34CCCN3C[C@H](F)C4)nc3c(F)c(-c4ccc(F)c5sc(N)nc45)c(Cl)cc23)c1", "note": "[Compound A290, 1-(8-(7-(2-amino-7-fluorobenzo[d]thiazol-4-yl)-6-chloro-8-fluoro-2-(((2R,7aS)-2-fluorotetrahydro-1H-pyrrolizin-7a(5H)-yl)methoxy)quinazolin-4-yl)-3,8-diazabicyclo[3.2. 1]octane-3-carbonyl)-1H-pyrrole-3-carbonitrile]", "values": [
      {"measurement": "Ratio of IC50 KRAS G12D vs. IC50 KRAS G12S", "result": "A (A: indicates that the ratio of IC50 against KrasG12D vs. IC50 against KrasG12S is 1-fold or greater)"}
    ]},
    {"smiles": "C[C@H](Oc1nc(OC2CCN(C(=O)Nc3nccs3)C2)c2cc(Cl)c(-c3ccc(F)c4sc(N)c(C#N)c34)c(F)c2n1)[C@@H]1CCCN1C", "note": "(stereo partly drawn) [Compound A237, 3-((7-(2-amino-3-cyano-7-fluorobenzo[b]thiophen-4-yl)-6-chloro-8-fluoro-2-((S)-1-((S)-1-methylpyrrolidin-2-yl)ethoxy)quinazolin-4-yl)oxy)-N-(thiazol-2-yl)pyrrolidine-1-carboxamide]", "values": [
      {"measurement": "Ratio of IC50 KRAS G12D vs. IC50 KRAS G12S", "result": "A (A: indicates that the ratio of IC50 against KrasG12D vs. IC50 against KrasG12S is 1-fold or greater)"}
    ]},
    {"smiles": "Cc1cnn(C(=O)N2C3CCC2CN(c2nc(OC[C@@]45CCCN4C[C@H](F)C5)nc4c(F)c(-c5ccc(F)c6sc(N)nc56)c(Cl)cc24)C3)c1", "note": "[Compound A113, (3-(7-(2-amino-7-fluorobenzo[d]thiazol-4-yl)-6-chloro-8-fluoro-2-(((2R,7aS)-2-fluorotetrahydro-1H-pyrrolizin-7a(5H)-yl)methoxy)quinazolin-4-yl)-3,8-diazabicyclo[3.2.1]octan-8-yl)(4-methyl-1H-pyrazol-1-yl)methanone]", "values": [
      {"measurement": "Ratio of IC50 KRAS G12D vs. IC50 KRAS G12S", "result": "A (A: indicates that the ratio of IC50 against KrasG12D vs. IC50 against KrasG12S is 1-fold or greater)"}
    ]},
    {"smiles": "Nc1nc2c(-c3c(Cl)cc4c(NC5C6CN(C(=O)n7cncn7)CC65)nc(OC[C@@]56CCCN5C[C@H](F)C6)nc4c3F)ccc(F)c2s1", "note": "(stereo partly drawn) [Compound A299, (6-((7-(2-amino-7-fluorobenzo[d]thiazol-4-yl)-6-chloro-8-fluoro-2-(((2R,7aS)-2-fluorotetrahydro-1H-pyrrolizin-7a(5H)-yl)methoxy)quinazolin-4-yl)amino)-3-azabicyclo[3.1.0]hexan-3-yl)(1H-1,2,4-triazol-1-yl)methanone]", "values": [
      {"measurement": "Ratio of IC50 KRAS G12D vs. IC50 KRAS G12S", "result": "A (A: indicates that the ratio of IC50 against KrasG12D vs. IC50 against KrasG12S is 1-fold or greater)"}
    ]},
    {"smiles": "N#Cc1c(N)sc2c(F)ccc(-c3c(Cl)cc4c(N5CCN(C(=O)Nc6nccs6)CC(O)C5)nc(OC[C@@]56CCCN5C[C@H](F)C6)nc4c3F)c12", "note": "(stereo partly drawn) [Compound A164, 4-(7-(2-amino-3-cyano-7-fluorobenzo[b]thiophen-4-yl)-6-chloro-8-fluoro-2-(((2R,7aS)-2-fluorotetrahydro-1H-pyrrolizin-7a(5H)-yl)methoxy)quinazolin-4-yl)-6-hydroxy-N-(thiazol-2-yl)-1,4-diazepane-1-carboxamide]", "values": [
      {"measurement": "Ratio of IC50 KRAS G12D vs. IC50 KRAS G12S", "result": "A (A: indicates that the ratio of IC50 against KrasG12D vs. IC50 against KrasG12S is 1-fold or greater)"}
    ]},
    {"smiles": "N#Cc1cccn1C(=O)N1CC2CCC(C1)N2c1nc(OC[C@@]23CCCN2C[C@H](F)C3)nc2c(F)c(-c3ccc(F)c4sc(N)nc34)c(Cl)cc12", "note": "[Compound A172, 1-(8-(7-(2-amino-7-fluorobenzo[d]thiazol-4-yl)-6-chloro-8-fluoro-2-(((2R,7aS)-2-fluorotetrahydro-1H-pyrrolizin-7a(5H)-yl)methoxy)quinazolin-4-yl)-3,8-diazabicyclo[3.2. 1]octane-3-carbonyl)-1H-pyrrole-2-carbonitrile]", "values": [
      {"measurement": "Ratio of IC50 KRAS G12D vs. IC50 KRAS G12S", "result": "A (A: indicates that the ratio of IC50 against KrasG12D vs. IC50 against KrasG12S is 1-fold or greater)"}
    ]},
    {"smiles": "Nc1nc2c(-c3c(Cl)cc4c(N5CC6(CCN(C(=O)n7cncn7)CC6)C5)nc(OC[C@@]56CCCN5C[C@H](F)C6)nc4c3F)ccc(F)c2s1", "note": "[Compound A292, (2-(7-(2-amino-7-fluorobenzo[d]thiazol-4-yl)-6-chloro-8-fluoro-2-(((2R,7aS)-2-fluorotetrahydro-1H-pyrrolizin-7a(5H)-yl)methoxy)quinazolin-4-yl)-2,7-diazaspiro[3.5]nonan-7-yl)(1H-1,2,4-triazol-1-yl)methanone]", "values": [
      {"measurement": "Ratio of IC50 KRAS G12D vs. IC50 KRAS G12S", "result": "A (A: indicates that the ratio of IC50 against KrasG12D vs. IC50 against KrasG12S is 1-fold or greater)"}
    ]},
    {"smiles": "CN1CCC[C@H]1COc1nc(N2CC3CCC(C2)N3C(=O)n2cc(C#N)cn2)c2cc(Cl)c(-c3ccc(F)c4sc(N)nc34)c(F)c2n1", "note": "[Compound A259, 1-(3-(7-(2-amino-7-fluorobenzo[d]thiazol-4-yl)-6-chloro-8-fluoro-2-(((S)-1-methylpyrrolidin-2-yl)methoxy)quinazolin-4-yl)-3,8-diazabicyclo[3.2.1]octane-8-carbonyl)-1H-pyrazole-4-carbonitrile]", "values": [
      {"measurement": "Ratio of IC50 KRAS G12D vs. IC50 KRAS G12S", "result": "A (A: indicates that the ratio of IC50 against KrasG12D vs. IC50 against KrasG12S is 1-fold or greater)"}
    ]},
    {"smiles": "N#Cc1c(N)sc2c(F)ccc(-c3c(Cl)cc4c(OC5CCN(C(=O)Nc6nccs6)C5)nc(OC[C@@]56CCCN5C[C@H](F)C6)nc4c3F)c12", "note": "(stereo partly drawn) [Compound A150, 3-((7-(2-amino-3-cyano-7-fluorobenzo[b]thiophen-4-yl)-6-chloro-8-fluoro-2-(((2R,7aS)-2-fluorotetrahydro-1H-pyrrolizin-7a(5H)-yl)methoxy)quinazolin-4-yl)oxy)-N-(thiazol-2-yl)pyrrolidine-1-carboxamide]", "values": [
      {"measurement": "Ratio of IC50 KRAS G12D vs. IC50 KRAS G12S", "result": "A (A: indicates that the ratio of IC50 against KrasG12D vs. IC50 against KrasG12S is 1-fold or greater)"}
    ]},
    {"smiles": "Nc1nc2c(-c3c(Cl)cc4c(NCCN5CCN(C(=O)n6cncn6)CC5=O)nc(OC[C@@]56CCCN5C[C@H](F)C6)nc4c3F)ccc(F)c2s1", "note": "[Compound A261, 1-(2-((7-(2-amino-7-fluorobenzo[d]thiazol-4-yl)-6-chloro-8-fluoro-2-(((2R,7aS)-2-fluorotetrahydro-1H-pyrrolizin-7a(5H)-yl)methoxy)quinazolin-4-yl)amino)ethyl)-4-(1H-1,2,4-triazole-1-carbonyl)piperazin-2-one]", "values": [
      {"measurement": "Ratio of IC50 KRAS G12D vs. IC50 KRAS G12S", "result": "A (A: indicates that the ratio of IC50 against KrasG12D vs. IC50 against KrasG12S is 1-fold or greater)"}
    ]},
    {"smiles": "N#Cc1nccn1C(=O)N1CCC(Nc2nc(OC[C@@]34CCCN3C[C@H](F)C4)nc3c(F)c(-c4ccc(F)c5sc(N)nc45)c(Cl)cc23)CC1", "note": "[Compound A155, 1-(4-((7-(2-amino-7-fluorobenzo[d]thiazol-4-yl)-6-chloro-8-fluoro-2-(((2R,7aS)-2-fluorotetrahydro-1H-pyrrolizin-7a(5H)-yl)methoxy)quinazolin-4-yl)amino)piperidine-1-carbonyl)-1H-imidazole-2-carbonitrile]", "values": [
      {"measurement": "Ratio of IC50 KRAS G12D vs. IC50 KRAS G12S", "result": "A (A: indicates that the ratio of IC50 against KrasG12D vs. IC50 against KrasG12S is 1-fold or greater)"}
    ]},
    {"smiles": "Nc1nc2c(-c3c(Cl)cc4c(N5CC(N6CCN(C(=O)n7cncn7)CC6)C5)nc(OC[C@@]56CCCN5C[C@H](F)C6)nc4c3F)ccc(F)c2s1", "note": "[Compound A166, (4-(1-(7-(2-amino-7-fluorobenzo[d]thiazol-4-yl)-6-chloro-8-fluoro-2-(((2R,7aS)-2-fluorotetrahydro-1H-pyrrolizin-7a(5H)-yl)methoxy)quinazolin-4-yl)azetidin-3-yl)piperazin-1-yl)(1H-1,2,4-triazol-1-yl)methanone]", "values": [
      {"measurement": "Ratio of IC50 KRAS G12D vs. IC50 KRAS G12S", "result": "A (A: indicates that the ratio of IC50 against KrasG12D vs. IC50 against KrasG12S is 1-fold or greater)"}
    ]}
  ]
}
